Measurements as given in publication PMC4279406, “Simultaneous targeting of PI3Kδ and a PI3Kδ-dependent MEK1/2-Erk1/2 pathway for therapy in pediatric B-cell acute lymphoblastic leukemia” (Oncotarget, 2014).

Test system: PI3Kβ (LPA-stimulated MEF cells)
Experiment: LPA-induced Akt phosphorylation in MEF cells
Type: cell-based, murine
Conditions: up to 0.5 μM; LPA 10 μM; 1 h pre-incubation
Experimental: In fibroblasts, signals from the insulin-like growth factor 1 (IGF-1) receptor are mediated by PI3Kα, while lysophosphatidic acid (LPA) stimulates G-protein coupled receptor (GPCR) signals via PI3Kβ[26]. After being pre-incubated with X-370, murine embryonic fibroblasts cultured in serum-free medium were stimulated with IGF-1 or LPA. […] Either PI3Kδ or PI3Kγ can be activated in THP-1 monocytes dependent on the stimulating ligand, among which macrophage colony stimulating factor (M-CSF/CSF-1) activates RTK-coupled PI3Kδ, while monocyte chemoattractant protein-1 (MCP-1) activates PI3Kγ [24]. Accordingly, THP-1 cells cultured in serum-free medium were stimulated with MCP-1 or M-CSF in the presence of X-370 and phosphorylated Akt was measured.
Cell lysates were probed with indicated antibodies. The IC50 values were calculated based on relative band intensity measured with ImageQuant™ TL (GE Healthcare Life Sciences, Piscataway, NJ) (B). Data shown are mean values from three independent experiments. (C, D, E, F) X-370 blocked stimuli-triggered PI3Kδ activation. MEF cells and THP-1 were starved in serum-free medium for 12 h or 4 h respectively and X-370 were added for an additional 1 h treatment following stimulation of IGF-1 at 100 ng/ml for MEF cells (C), LPA at 10 μM for MEF cells (D), MCP-1 at 100ng/ml for THP-1 (E) and M-CSF at 50 ng/ml for THP-1 (F). […]

O=C(N1CCCC1)N1CCC(n2cnc3c(-n4c(C(F)F)nc5ccccc54)nc(N4CCOCC4)nc32)CC1 [X-370]
LPA-induced Akt phosphorylation: partially inhibited
